How the values were obtained:
Format in all cases: cell-based
EGFR dimers (wild type) = target: T1, EGFR dimers (wild type) (Homo sapiens, UniProt P00533); test: Protein complementary assay (split YFP), PDCy3 binding to EGFR dimers, wild type; conditions: wild type receptor pair, 1 μM PDCy3
T1 construct: one encoding human EGFR(1-998) fused with a split YFP-N(1-172) fragment; the other encoding hEGFR(1-998) linked to a split YFP-C(155-238) fragment; expressed in transfected cells; host or cells: HEK 293T
Excerpt: (§1) Protein complementary assay. For protein complementary assay, we designed two complementary constructs: one encoding human EGFR(1-998) fused with a split YFP-N(1-172) fragment, and the other encoding hEGFR(1-998) linked to a split YFP-C(155-238) fragment. Kinase mutations were introduced on both constructs to make a complementary pair. All the constructs were verified by sequencing. The paired constructs encoding the same receptor were co-transfected into HEK 293T cells. Transfected cells were starved in EX-Cell 293 Serum-Free Medium for 44 hours before treatment with 1 μM PDCy3 for additional 4 hours. The dimerization of the EGF receptors and the binding of dimerized receptors to PDCy3 were analyzed by flowcytometry.
(§2) To further investigate how EGFR kinase dimerization affects PDCy3 binding, we did a protein complementary assay. In the assay, split YFP fragments were individually fused to the C-terminus of the full length EGFR, and EGF kinase dimerization was reported by the fluorescence of assembled YPF from co-transfected receptors (FIG. 4A)^23. As shown in the FIG. 4B, the cells with co-expressed EGFR dimers could be divided into two populations. In one population, the quantity of bound PDCy3 increased linearly as a function of the expression levels of EGFR dimers (FIG. 4C). But in the other population, the quantity of bound PDCy3 was independent of the expressed EGFR dimers. […]

EGFR dimers (L834R) = target: T2, EGFR dimers (L834R) (Homo sapiens, UniProt P00533, L858R); test: Protein complementary assay (split YFP), PDCy3 binding to EGFR dimers, L834R
T2 construct: one encoding human EGFR(1-998) fused with a split YFP-N(1-172) fragment; the other encoding hEGFR(1-998) linked to a split YFP-C(155-238) fragment; expressed in transfected cells; host or cells: HEK 293T
Excerpt: as §1, §2

EGFR wild type = target: T3, EGFR wild type (Homo sapiens, UniProt P00533); test: Flowcytometry of PDCy3 binding to EGFR-transfected HEK293T cells (cell sorting)
T3 construct: plasmids encoding human EGFR (1-988) and split YFP fragments; host or cells: HEK 293T
Procedure: (§3) Cell sorting. […] After 30-minute incubation on ice, cells were washed twice with 500 μl/well PBS, and were re-suspended in 400 l PBS. Then, 0.3 μl FITC-labelled secondary antibody at a concentration of 2 mg/ml was added to each sample. After incubation on ice for 30 minutes, cells were washed three times with PBS, re-suspended in 400 μl/well PBS, and analyzed by flowcytometry using a BD FACS Calibur machine.
The binding abilities of the PDCy3 probe to EGFR-expressed cells were compared by flowcytometry under different conditions.
We compared the efficiencies in labelling EGFR over-expressed cells versus those non-over-expressed cells under different PDCy3 concentrations (FIG. 3A).
as §3, with “500 μL/well” for “500 μl/well”, “400 μL” for “400 l”, “0.3 μL” for “0.3 μl”, “2 mg/mL” for “2 mg/ml”, “400 μL/well” for “400 μl/well”, “by floweytometry” for “by flowcytometry”
The binding abilities of PDCy3 to EGFR-expressed and non-expressed cells were compared by flowcytometry under different conditions.
To characterize the specificity of PDCy3, we compared the efficiencies in labelling EGFR over-expressed cells versus those non-over-expressed cells under different PDCy3 concentrations (FIG. 3A).

- fraction of the population with the higher sensitivity to PDCy3 (population A) (EGFR dimers (wild type)): 38.4%
- fraction of the population with the higher sensitivity to PDCy3 (population A) (EGFR dimers (L834R); L834R receptor pair, 1 μM PDCy3): 27.4%
- sensitivity of population A versus population B in response to PDCy3 binding (EGFR dimers (L834R); L858R (so in the source) mutant dimers): 5 times
- effect of EGF treatment on binding of PDCy3 to EGFR-expressed cells (EGFR wild type; 10 nM EGF): did not enhance
- EGFR positive cells labeled by the probe (EGFR wild type; 1 μM PDCy3, transfected HEK293T cells): over 84.9%
- sensitivity of transfected cells to PDCy3 in flowcytometry (EGFR wild type; 293T cells transfected with the WT receptor): high sensitivity
- population of EGFR-expressed, PDCy3 positive cells (EGFR wild type; in the presence of EGF (10 nM), 1 μM PDCy3, no gefitinib): 45.4%
- fraction of EGFR-expressed, PDCy3 positive cells relative to the total EGFR-expressed cells (EGFR wild type; in the presence of EGF, no gefitinib): 24.9%
- relative bound PDCy3 (EGFR wild type; in the presence of EGF, no gefitinib, mean fluorescent intensity times fraction of PDCy3+/EGFR+ cells): 45.4 a.u.
- population (fraction) of PDCy3-bound, EGFR positive cells (EGFR wild type; wild type EGFR, 1 μM PDCy3): 52.4%
Compound: CN1/C(=C/C=C/C2=[N+](CCCCCC(=O)NCCC/C=C/C(=O)Nc3ccc4ncnc(Nc5cccc(Br)c5)c4c3)c3ccc(S(=O)(=O)O)cc3C2(C)C)C(C)(C)c2cc(S(=O)(=O)[O-])ccc21 [PDCy3, 1-(6-((E)-6-(4-(3-bromophenylamino)quinazolin-6-ylamino)-6-oxohex-4-enylamino)-6-oxohexyl)-3,3-dimethyl-2-((1E,3E)-3-(1,3,3-trimethyl-5-sulfonatoindolin-2-ylidene)prop-1-enyl)-3H-indolium-5-sulfonate]
